These results are taken from ChEMBL document CHEMBL1201862, “PubChem BioAssay data set” (2004).

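Five compound concentrations were applied to cells in 96-well plates for 48 hours; endpoints were derived by simple linear interpolation of the resulting dose-response curve. At the GI50, growth is halved.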 Calls of active or inactive are those of the source. Rule as the data show it: active = GI50 up to about 1.1 µM and inactive = higher.

Common to all, as to test: NCI anticancer screen, dose series, 48 h
Assay [1] concerns BT-549.
Assay [2] relates to CAKI-1.
Assay [3] has as its system HCT-15.
Assay [4] concerns LOX IMVI.
The test system of assay [5] is MDA-MB-231.
Assay [6] relates to NCI-H23.
The test system of assay [7] is SF-268.
For assay [8], the system named is SF-295.
The test system of assay [9] is SK-MEL-28.
Assay [10] deals with SN12C.
Assay [11] relates to SNB-19.
The test system of assay [12] is SNB-75.
For assay [13], the system named is U-251.
Assay [14] concerns UACC-62.
For assay [15], the system named is HCC 2998.
The test system of assay [16] is MCF7.

As to `Cc1ccc(/N=N/c2c(O)ccc3cc(S(=O)(=O)O)ccc23)cc1`, the GI50 in [1] was > 100 µM (inactive); in assay [2], 23.9 µM (inactive); in [3] it was greater than 100 µM; in assay [4] it was 18.2 µM (inactive); in assay [5], 18.8 µM (inactive); in assay [6], > 100 µM (inactive). Further, the GI50 in assay [7] was 85.5 µM (inactive); in assay [8], > 100 µM (inactive); in assay [9] it was > 100 µM (inactive); in [10], > 100 µM (inactive); in [11], > 100 µM (inactive); in assay [12] it was 34.8 µM (inactive). Further, the GI50 in [13] and in assay [14] was > 100 µM (inactive) in each case.

For the compound `CC[N+](CC)(CC)/C(=N\S(=O)(=O)c1ccc(Cl)cc1)[N-]S(=O)(=O)c1cc(C)c(Cl)cc1S`, the GI50 in assay [2] is > 100 µM (inactive); in [15], 73.5 µM (inactive); in assay [3], 66.7 µM; in [4] it was > 100 µM (inactive); in assay [16], 53.2 µM (inactive); in assay [5], > 100 µM (inactive). The GI50 in [6] is 85.9 µM (inactive); in assay [7] it was > 100 µM (inactive); in assay [8] it was 47 µM (inactive); in assay [9] it was > 100 µM (inactive); in [13], 43.1 µM (inactive).

Regarding `N=C1N(c2ccccc2)C(=S)/C(=N/c2ccccc2)N1c1ccccc1`, the GI50 in assay [2] was 14.4 µM (inactive); in [15], 15.3 µM (inactive); in assay [3], 7.19 µM; in assay [4], 2.01 µM (inactive); in [16], 1.84 µM (inactive); in assay [5], 8.73 µM (inactive). The GI50 in assay [6] is 6.03 µM (inactive); in assay [7] it was 14.9 µM (inactive); in assay [8], 16.6 µM (inactive); in [9], 16.8 µM (inactive); in assay [10] it was 13.3 µM (inactive); in assay [11] it was 16.6 µM (inactive). The GI50 in assay [12] was 15.9 µM (inactive); in [13] it was 14.2 µM (inactive); in assay [14], 5.77 µM (inactive).

As for `Cc1ccc2c(c1)Nc1ccccc1P2(=O)O`, the GI50 in [2] is > 100 µM (inactive); in assay [15] it was > 100 µM (inactive); in assay [3], greater than 100 µM; in assay [4] it was > 100 µM (inactive); in assay [5] it was > 100 µM (inactive); in assay [6], > 100 µM (inactive). The GI50 in [7] is > 100 µM (inactive); in assay [8] it was > 100 µM (inactive); in [9] it was > 100 µM (inactive); in [10] it was > 100 µM (inactive); in [11], > 100 µM (inactive); in assay [12] it was < 0.01 µM (active). Also, the GI50 in assay [13] and in assay [14] was > 100 µM (inactive) in each case.

In the case of `COP(=O)(OC)/C(=C\C1=CN(C(c2ccccc2)(c2ccccc2)c2ccccc2)CN1)NC=O`, the GI50 in [2] was 16.6 µM (inactive); in [15], 21.1 µM (inactive); in [3] it was 16.6 µM; in assay [4], 12.8 µM (inactive); in [5], 16.8 µM (inactive); in assay [6], 18.2 µM (inactive). Further, the GI50 is 16.4 µM (inactive) in assay [8]; 17.7 µM (inactive) in assay [9]; 18.3 µM (inactive) in assay [10]; 20.1 µM (inactive) in assay [11]; 20.2 µM (inactive) in assay [12]; 16.3 µM (inactive) in [13].

Regarding `N#Cc1c(N)nc(Sc2ccccc2N)c(C#N)c1-c1ccccc1`, the GI50 in [1] is 10.8 µM (inactive); in [2], 28.6 µM (inactive); in assay [15], 15 µM (inactive); in [3] it was 15.2 µM; in assay [4], 12.9 µM (inactive); in assay [16], 10.6 µM (inactive). The GI50 in [5] is 14 µM (inactive); in [6], 13.3 µM (inactive); in [7], 17.8 µM (inactive); in assay [9], 28.2 µM (inactive); in assay [11], 29.4 µM (inactive); in [13] it was 19.6 µM (inactive). The GI50 in [14] was 10.3 µM (inactive).

On to `C=CCNC(=O)NNC(O)(C(=O)OCC)C(F)(F)F` (configuration not stated), for which the GI50 in assay [2] was > 100 µM (inactive); in [15] it was > 100 µM (inactive); in assay [3] it was greater than 100 µM; in assay [4], > 100 µM (inactive); in assay [16] it was > 100 µM (inactive); in assay [5] it was > 100 µM (inactive). Besides, the GI50 in [6], in assay [7], in assay [9], in assay [10], in [11] and in [12] was > 100 µM (inactive) throughout. Besides, the GI50 in [13] was > 100 µM (inactive).

Turning to `C=C1C(=O)O[C@H]2C(=O)[C@H](C)CCC[C@@](C)(O)/C=C\C[C@@]3(C)O[C@@H]3C[C@@H]12`, the GI50 is 12.9 µM (inactive) in assay [2]; 11.5 µM in assay [3]; 15.8 µM (inactive) in assay [4]; 18.7 µM (inactive) in [16]; 21.7 µM (inactive) in assay [5]; 24.5 µM (inactive) in assay [6]. Moreover, the GI50 in assay [7] was 23.3 µM (inactive); in [8] it was 5.28 µM (inactive); in assay [10] it was 17.1 µM (inactive); in assay [11], 35.8 µM (inactive); in [13] it was 18.3 µM (inactive); in assay [14] it was 18.4 µM (inactive).

Regarding `O=C(O)c1cc2cc(OCc3ccccc3)ccc2[nH]1`, the GI50 in [2] was > 100 µM (inactive); in [15], > 100 µM (inactive); in assay [3], greater than 100 µM; in assay [4], > 100 µM (inactive); in [16], 88.1 µM (inactive); in assay [5], > 100 µM (inactive). The GI50 is > 100 µM (inactive) in [6]; > 100 µM (inactive) in [7]; > 100 µM (inactive) in [8]; 4.01 µM (inactive) in assay [9]; > 100 µM (inactive) in assay [10]; 73.6 µM (inactive) in [11]. Moreover, the GI50 in assay [13] and in [14] was > 100 µM (inactive) each time.

Consider `CNC(=O)OCC1C2=C(C(=O)C(C)=C(N)C2=O)N2CC3C(N3C)C12OC` (configuration not stated), for which the GI50 in assay [1] was 31.8 µM (inactive); in assay [2] it was 3.16 µM (inactive); in assay [15] it was 12.4 µM (inactive); in assay [3], 12.1 µM; in assay [4] it was 9.91 µM (inactive); in assay [16], 3.29 µM (inactive). Moreover, the GI50 in [5] was > 100 µM (inactive); in assay [6], 1.53 µM (inactive); in [8], 5.02 µM (inactive); in [9] it was 47.9 µM (inactive); in assay [10], 5.61 µM (inactive); in assay [11] it was 3.3 µM (inactive). Also, the GI50 in [13] is 14.1 µM (inactive); in assay [14], 9.93 µM (inactive).

`Cc1cc(O)c(C(C)C)cc1C(=S)Nc1ccc(Cl)cc1`: the GI50 was 16.5 µM (inactive) in [1]; 14.6 µM (inactive) in assay [2]; 15.1 µM (inactive) in assay [15]; 10.7 µM in assay [3]; 11.2 µM (inactive) in assay [4]; 8.11 µM (inactive) in assay [16]. Besides, the GI50 in [6] is 5.93 µM (inactive); in [7], 7 µM (inactive); in assay [8] it was 14.2 µM (inactive); in assay [9], 13.9 µM (inactive); in [13], 14.7 µM (inactive); in assay [14], 10 µM (inactive).

Consider `CC1(C)[C@@H](Cn2nnc3c(N)ncnc32)CC[C@@]1(C)CO`, for which the GI50 in assay [2] was > 100 µM (inactive); in assay [15], 12.6 µM (inactive); in [3] it was greater than 100 µM; in assay [4] it was > 100 µM (inactive); in [16] it was > 100 µM (inactive); in [5] it was > 100 µM (inactive). Moreover, the GI50 in assay [7], in [8], in assay [9], in assay [10], in assay [11] and in [12] was > 100 µM (inactive) throughout. The GI50 in [13] and in assay [14] was > 100 µM (inactive) throughout.

Regarding `c1ccc(Nc2nnc(-c3ccccc3Nc3ccccc3-c3nnc(Nc4ccccc4)s3)s2)cc1`, the GI50 in assay [1] was > 100 µM (inactive); in assay [15] it was > 100 µM (inactive); in assay [3], greater than 100 µM; in [4], > 100 µM (inactive); in assay [16] it was > 100 µM (inactive); in assay [6], > 100 µM (inactive). In addition, the GI50 in assay [7], in assay [8], in [9], in [11], in assay [12] and in assay [13] was > 100 µM (inactive) each time. Besides, in assay [14], the GI50 is > 100 µM (inactive).

For the compound `CN1N=C(c2ccncc2)OC1c1cccc(F)c1` (configuration not stated), the GI50 in assay [15] was > 100 µM (inactive); in [3] it was greater than 100 µM; in assay [4], > 100 µM (inactive); in assay [16], > 100 µM (inactive); in [5] it was > 100 µM (inactive); in [6] it was > 100 µM (inactive). Further, the GI50 in assay [7], in assay [8], in [9], in assay [10], in assay [11] and in assay [12] was > 100 µM (inactive) each time. Also, the GI50 in assay [13] and in [14] was > 100 µM (inactive) in each case.

Regarding `COP(=O)(O)C(N)Cc1c[nH]c2ccccc12` (configuration not stated), the GI50 in assay [2] is > 100 µM (inactive); in assay [15], > 100 µM (inactive); in assay [3] it was greater than 100 µM; in assay [4], > 100 µM (inactive); in assay [16], > 100 µM (inactive); in assay [5], > 100 µM (inactive). For the same compound, the GI50 in [6], in assay [8], in [9], in [10], in assay [11] and in [13] was > 100 µM (inactive) throughout.
